Among the test systems are DU-145; UACC-257; U-251; SK-MEL-2; Hs-578T; MDA-MB-231; MDA-MB-435; Malme-3M; RPMI-8226; MDA-N; OVCAR-4; UO-31; HCC 2998; HCT-15; HCT-116; LOX IMVI; MOLT-4; SF-539; T47D.
Common to all, as to experiment: inhibition of tumour cell growth, NCI panel, 48 h

The structures appear in SMILES notation.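 1) Cells in 96-well plates. 2) Compound, 48 h, 5 concentrations. 3) Linear interpolation between surrounding doses. 4) Unreached endpoint = highest concentration. The concentration for 50% growth inhibition is given as GI50.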 The source made the active and inactive calls. Cut-off read from the data, not from the text of the source: active = GI50 up to about 1.1 µM and inactive = higher. Bounds are passed on as bounds.

As for `CCN(CC)CC1CCCCN1CC(=O)N1c2ccc(Br)cc2C(=O)Nc2cccnc21` (configuration not stated), the GI50 with DU-145 was > 100 µM (inactive); with UACC-257, 74.8 µM (inactive); in the assay on U-251, > 100 µM (inactive); in the assay on SK-MEL-2, > 100 µM (inactive); in the assay with Hs-578T it was > 100 µM (inactive); in the assay on MDA-MB-231, > 100 µM (inactive). Also, the GI50 with MDA-MB-435 is > 100 µM (inactive); with Malme-3M, > 100 µM (inactive); in the assay with RPMI-8226, > 100 µM (inactive); in the assay on MDA-N, > 100 µM (inactive); with OVCAR-4, > 100 µM (inactive); in the assay on UO-31, 27.2 µM (inactive). The GI50 was > 100 µM (inactive) in the assay on HCC 2998; over 100 µM in the assay with HCT-15; > 100 µM (inactive) in the assay on HCT-116; > 100 µM (inactive) in the assay with LOX IMVI; > 100 µM (inactive) in the assay with MOLT-4; > 100 µM (inactive) with SF-539. In the assay on T47D, the GI50 was > 100 µM (inactive).

Take `Clc1cc(C(c2cc(Cl)sc2Cl)c2cc(Cl)sc2Cl)c(Cl)s1`: the GI50 with DU-145, with UACC-257, in the assay with U-251, in the assay with SK-MEL-2, in the assay with Hs-578T and in the assay with MDA-MB-231 was > 100 µM (inactive) in each case. In addition, the GI50 is > 100 µM (inactive) in the assay with MDA-MB-435; 74.1 µM (inactive) with Malme-3M; > 100 µM (inactive) with RPMI-8226; > 100 µM (inactive) with MDA-N; > 100 µM (inactive) in the assay on OVCAR-4; > 100 µM (inactive) in the assay on UO-31. The GI50 was > 100 µM (inactive) in the assay with HCC 2998; over 100 µM with HCT-15; > 82.2 µM (inactive) in the assay with HCT-116; > 100 µM (inactive) in the assay with LOX IMVI; > 81.7 µM (inactive) in the assay on MOLT-4; > 100 µM (inactive) in the assay with SF-539. The GI50 in the assay with T47D was > 100 µM (inactive).

`NC(=O)NC(=O)c1cccc(NC(=O)CF)c1`: the GI50 with DU-145, with UACC-257, in the assay with U-251, in the assay with SK-MEL-2, in the assay on Hs-578T and with MDA-MB-231 was > 100 µM (inactive) throughout. The GI50 in the assay with MDA-MB-435 was > 100 µM (inactive); with Malme-3M, > 100 µM (inactive); in the assay on RPMI-8226, > 100 µM (inactive); in the assay with MDA-N, > 100 µM (inactive); in the assay with OVCAR-4, > 100 µM (inactive); in the assay with UO-31, 31 µM (inactive). The GI50 with HCC 2998 is > 100 µM (inactive); in the assay on HCT-15, over 100 µM; with HCT-116 it was > 100 µM (inactive); in the assay with LOX IMVI, > 100 µM (inactive); in the assay on MOLT-4, > 100 µM (inactive); in the assay on SF-539, > 100 µM (inactive). In addition, in the assay with T47D, the GI50 is > 100 µM (inactive).

Consider `c1ccc2c(c1)SC1=C(SC(=C3SC4=C(S3)Sc3ccccc3S4)S1)S2`, for which the GI50 was > 100 µM (inactive) with DU-145; > 100 µM (inactive) in the assay with UACC-257; > 100 µM (inactive) in the assay on U-251; > 100 µM (inactive) with SK-MEL-2; 23.3 µM (inactive) with Hs-578T; > 100 µM (inactive) in the assay on MDA-MB-231. Moreover, the GI50 with MDA-MB-435, with Malme-3M, in the assay with RPMI-8226, in the assay on MDA-N, with OVCAR-4 and in the assay with UO-31 was > 100 µM (inactive) each time. The GI50 in the assay on HCC 2998 was > 100 µM (inactive); in the assay on HCT-15, over 100 µM; with HCT-116, > 100 µM (inactive); with LOX IMVI, > 100 µM (inactive); in the assay on MOLT-4 it was > 100 µM (inactive); with SF-539, > 100 µM (inactive). In the assay on T47D, the GI50 was > 100 µM (inactive).

With `Cc1ccc(O)c(C2=CC3=NNC(=O)C3C(c3cccc(Br)c3)C2)c1` (configuration not stated), the GI50 with DU-145 is 29.2 µM (inactive); in the assay with UACC-257 it was 45.2 µM (inactive); in the assay with U-251, 21.7 µM (inactive); in the assay with SK-MEL-2, 27.4 µM (inactive); with Hs-578T, 27.1 µM (inactive); in the assay on MDA-MB-231, 20 µM (inactive). Further, the GI50 with MDA-MB-435 was 23.9 µM (inactive); with Malme-3M it was 25.9 µM (inactive); in the assay with RPMI-8226 it was 22.1 µM (inactive); with MDA-N, 23.7 µM (inactive); in the assay on OVCAR-4, 8.04 µM (inactive); in the assay on UO-31 it was 57.3 µM (inactive). Further, the GI50 in the assay with HCC 2998 was 14.7 µM (inactive); in the assay on HCT-15 it was 20.9 µM; in the assay on HCT-116, 21 µM (inactive); in the assay on LOX IMVI, 14 µM (inactive); in the assay with MOLT-4 it was 30.9 µM (inactive); with SF-539, 29.4 µM (inactive). Moreover, the GI50 in the assay with T47D was 20.5 µM (inactive).

As to `CC(C)(O)C1CC[C@]2(C)[C@H]3CC[C@@H]4[C@@]5(C)CCCC(C)(C)[C@@H]5CC[C@@]4(C)[C@]3(C)CC[C@@H]12` (some centres not stated), the GI50 in the assay with DU-145, with UACC-257, with U-251, with SK-MEL-2, with Hs-578T and in the assay with MDA-MB-231 was > 100 µM (inactive) in each case. For the same molecule, the GI50 in the assay with MDA-MB-435, in the assay with Malme-3M, in the assay on RPMI-8226, in the assay on MDA-N, with OVCAR-4 and with HCC 2998 was > 100 µM (inactive) throughout. Moreover, the GI50 was over 100 µM with HCT-15; > 100 µM (inactive) with HCT-116; > 100 µM (inactive) in the assay on LOX IMVI; > 100 µM (inactive) in the assay with MOLT-4; > 100 µM (inactive) with SF-539; > 100 µM (inactive) in the assay on T47D.

Regarding `CCOC1OCCCC1Br` (configuration not stated), the GI50 in the assay with DU-145, in the assay on UACC-257, in the assay with SK-MEL-2, in the assay with Hs-578T, in the assay with MDA-MB-231 and in the assay with MDA-MB-435 was > 100 µM (inactive) throughout. Further, the GI50 in the assay with Malme-3M, with RPMI-8226, in the assay with MDA-N, with OVCAR-4, in the assay with UO-31 and with HCC 2998 was > 100 µM (inactive) throughout. Moreover, the GI50 with HCT-15 was over 100 µM; in the assay on HCT-116, > 100 µM (inactive); in the assay on LOX IMVI, > 100 µM (inactive); in the assay on MOLT-4, > 100 µM (inactive); in the assay with SF-539, > 100 µM (inactive); in the assay on T47D it was > 100 µM (inactive).

Consider `CC1(C)N=c2[nH]cnc2=C(C(N)=O)N1`, for which the GI50 in the assay on DU-145, in the assay with UACC-257, in the assay with U-251, in the assay with SK-MEL-2, in the assay with Hs-578T and in the assay on MDA-MB-231 was > 100 µM (inactive) each time. The GI50 with MDA-MB-435, in the assay with Malme-3M, in the assay on RPMI-8226, in the assay on MDA-N, in the assay with OVCAR-4 and in the assay on HCC 2998 was > 100 µM (inactive) each time. Further, the GI50 in the assay with HCT-15 was over 100 µM; in the assay with HCT-116, > 100 µM (inactive); with LOX IMVI, > 100 µM (inactive); with SF-539, > 100 µM (inactive); in the assay on T47D it was > 100 µM (inactive).

For the molecule `COc1cc2c(c3oc4c(O)cccc4c(=O)c13)CC(C(C)(O)CO)O2` (configuration not stated), the GI50 was > 100 µM (inactive) with DU-145; > 100 µM (inactive) in the assay on UACC-257; 97.9 µM (inactive) in the assay on U-251; 57.4 µM (inactive) in the assay on SK-MEL-2; 44.3 µM (inactive) in the assay on Hs-578T; 63.7 µM (inactive) in the assay on MDA-MB-231. Besides, the GI50 was > 100 µM (inactive) in the assay with MDA-MB-435; 47.5 µM (inactive) in the assay on Malme-3M; > 100 µM (inactive) in the assay on RPMI-8226; 94.8 µM (inactive) with MDA-N; > 100 µM (inactive) in the assay on UO-31; > 100 µM (inactive) in the assay on HCC 2998. Further, the GI50 in the assay with HCT-15 is over 100 µM; in the assay on HCT-116, 40.6 µM (inactive); in the assay on LOX IMVI it was 25 µM (inactive); with MOLT-4 it was 15.7 µM (inactive); in the assay with SF-539, 60.3 µM (inactive); in the assay on T47D, 75.7 µM (inactive).

On to `CC(C)(C)C(=O)OCOP(=O)(OCOC(=O)C(C)(C)C)OCC1OC(n2ccc(=O)[nH]c2=O)C(N=[N+]=[N-])C1O` (configuration not stated), for which the GI50 with DU-145 is 4.94 µM (inactive); in the assay with UACC-257, 5.37 µM (inactive); in the assay on U-251 it was 2.59 µM (inactive); in the assay on Hs-578T, 0.804 µM (active); with MDA-MB-231, 8.79 µM (inactive); in the assay on MDA-MB-435, 3.71 µM (inactive). The GI50 was 0.261 µM (active) in the assay on Malme-3M; 1.62 µM (inactive) in the assay with RPMI-8226; 3.11 µM (inactive) in the assay on MDA-N; 3.13 µM (inactive) with OVCAR-4; 1.62 µM (inactive) in the assay on UO-31; 2.75 µM (inactive) in the assay on HCC 2998. Further, the GI50 was 3.07 µM with HCT-15; 3.22 µM (inactive) in the assay on HCT-116; 1.59 µM (inactive) in the assay on LOX IMVI; 4.01 µM (inactive) in the assay on MOLT-4; 2.43 µM (inactive) in the assay on SF-539; 1.48 µM (inactive) with T47D.

As to `COC1(CC[C@H](C)COC2OC(CO)C(O)C(O)C2O)O[C@H]2C[C@H]3[C@@H]4CC=C5C[C@@H](OC6OC(CO)C(OC7OC(C)C(O)C(O)C7O)C(O)C6OC6OC(C)C(O)C(O)C6O)CC[C@]5(C)[C@H]4CC[C@]3(C)[C@H]2[C@@H]1C` (some centres not stated), the GI50 is 2.42 µM (inactive) in the assay with DU-145; 5.51 µM (inactive) in the assay on UACC-257; 2.4 µM (inactive) with U-251; 3.78 µM (inactive) with SK-MEL-2; 1.9 µM (inactive) in the assay with Hs-578T; 5.05 µM (inactive) with MDA-MB-231. Moreover, the GI50 is 1.77 µM (inactive) with MDA-MB-435; 3.45 µM (inactive) with Malme-3M; 2.32 µM (inactive) with RPMI-8226; 2.88 µM (inactive) in the assay on MDA-N; 3.78 µM (inactive) with OVCAR-4; 2.47 µM (inactive) in the assay on UO-31. The GI50 with HCC 2998 is 6.32 µM (inactive); in the assay on HCT-15 it was 2.68 µM; in the assay on LOX IMVI, 1.9 µM (inactive); with MOLT-4, > 23.5 µM (inactive); in the assay on SF-539, 1.96 µM (inactive); in the assay on T47D it was 2.45 µM (inactive).
